≈ marks a conversion by molar mass, not a printed value.
Molecular target: AChE EC 3.1.1.7 (Homo sapiens, UniProt P22303)
Assay: Spectrophotometric AChE inhibition assay
Type: biochemical
Details: not given

Sequence of AChE EC 3.1.1.7 (P22303 32-614): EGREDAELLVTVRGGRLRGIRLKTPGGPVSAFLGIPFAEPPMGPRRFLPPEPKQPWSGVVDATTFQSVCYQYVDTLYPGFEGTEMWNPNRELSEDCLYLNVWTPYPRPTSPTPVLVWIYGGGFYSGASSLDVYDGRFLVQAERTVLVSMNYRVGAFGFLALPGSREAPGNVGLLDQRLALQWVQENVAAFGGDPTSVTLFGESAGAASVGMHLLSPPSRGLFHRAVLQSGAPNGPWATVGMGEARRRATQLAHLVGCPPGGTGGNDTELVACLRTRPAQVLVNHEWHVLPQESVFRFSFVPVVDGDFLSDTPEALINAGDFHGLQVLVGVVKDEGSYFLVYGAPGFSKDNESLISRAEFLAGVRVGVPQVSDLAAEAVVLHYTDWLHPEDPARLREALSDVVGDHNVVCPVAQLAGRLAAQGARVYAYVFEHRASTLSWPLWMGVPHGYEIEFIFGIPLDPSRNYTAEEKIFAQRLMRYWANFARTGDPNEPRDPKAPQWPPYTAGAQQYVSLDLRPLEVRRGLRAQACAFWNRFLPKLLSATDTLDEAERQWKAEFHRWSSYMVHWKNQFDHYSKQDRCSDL

Compound	AChE inhibiting activity (in words)
COc1cc2c(c(O)c1OC)c(=O)c1ccccc1n2C [Compound 1, arborinine]	strongest AChE inhibiting activity
O=c1cc(-c2ccc3c(c2)OCO3)[nH]c2ccccc12 [Compound 11, norgraveoline]	Modest effects
COc1cc2ccc(=O)oc2c(OC)c1OC [Compound 13, 6,7,8-trimethoxycoumarin]	Modest effects
isoplatydesmin [Compound 9]	Modest effects

Same assay, conditions: AChE (experimental result, activity class), Table 5 overview

Compound	IC50 [µM]
COc1cc2c(c(O)c1OC)c(=O)c1ccccc1n2C [Compound 1, arborinine]	< 50
C=CC(C)(C)c1cc2cc3c(cc2oc1=O)OC(C(C)(C)OC(C)=O)C3 (centres unmarked) [Compound 3, rutamarin]	> 500
CC(C)=CCOc1c2ccoc2cc2oc(=O)ccc12 [Compound 4, isoimperatorine]	> 500
O=c1ccc2cc3ccoc3cc2o1 [Compound 5, psoralen]	> 500
COc1c2ccoc2cc2oc(=O)ccc12 [Compound 6, bergapten]	> 500
COc1c2occc2cc2ccc(=O)oc12 [Compound 7, 8-methoxy psoralene]	> 500
COc1ccc2ccc(=O)oc2c1 [Compound 12, 7-methoxycoumarin]	> 500
COc1cc2ccc(=O)oc2c(OC)c1OC [Compound 13, 6,7,8-trimethoxycoumarin]	200 to 500

Same assay, conditions: AChE IC50 ± SD, in vitro, modified Ellman's method, 96-well microplate, n = 4

Compound	IC50 [µM]
COc1cc2c(c(O)c1OC)c(=O)c1ccccc1n2C [Compound 1, arborinine]	34.7 ± 7.1
C=CC(C)(C)c1cc2cc3c(cc2oc1=O)OC(C(C)(C)OC(C)=O)C3 (centres unmarked) [Compound 3, rutamarin]	> 500
CC(C)=CCOc1c2ccoc2cc2oc(=O)ccc12 [Compound 4, isoimperatorine]	> 500
O=c1ccc2cc3ccoc3cc2o1 [Compound 5, psoralen]	> 500
COc1c2ccoc2cc2oc(=O)ccc12 [Compound 6, bergapten]	> 500
COc1c2occc2cc2ccc(=O)oc12 [Compound 7, 8-methoxy psoralene]	> 500
COc1ccc2ccc(=O)oc2c1 [Compound 12, 7-methoxycoumarin]	> 500
COc1cc2ccc(=O)oc2c(OC)c1OC [Compound 13, 6,7,8-trimethoxycoumarin]	396 ± 68.5
COC(=O)CC(O)c1cc(OC)c(O)c(OC)c1 (centres unmarked) [Compound 14, Methyl 3-hydroxy-3-(4-hydroxy-3,5-dimethoxyphenyl)propanoate]	> 500
COC(=O)C1OC1c1cc(OC)c(O)c(OC)c1 (centres unmarked) [Compound 15, Methyl 3-(4-hydroxy-3,5-dimethoxyphenyl)oxirane-2-carboxylate]	> 500
COC(=O)CCc1cc2ccoc2c(OC)c1O [Compound 16, Methyl 3-(6-hydroxy-7-methoxybenzofuran-5-yl)propanoate]	> 500

Same assay, conditions: read-out: AChE (experimental result, activity class); Table 5 overview

Compound	IC50 [µM]
COc1cc2cc(Oc3ccc4ccc(=O)oc4c3)c(=O)oc2cc1OC [Compound 2, daphnoretin methyl ether]	> 500
Cn1c2c(c(=O)c3ccccc31)CC(O)C(C)(C)O2 (centres unmarked) [Compound 8, S-ribalinine]	> 500
COc1c(C[C@@H](O)C(C)(C)O)c(=O)n(C)c2ccccc12 [Compound 10, (−)-edulinine]	> 500
O=c1cc(-c2ccc3c(c2)OCO3)[nH]c2ccccc12 [Compound 11, norgraveoline]	50 to 200
COC(=O)CC(O)c1cc(OC)c(O)c(OC)c1 (centres unmarked) [Compound 14, Methyl 3-hydroxy-3-(4-hydroxy-3,5-dimethoxyphenyl)propanoate]	> 500
COC(=O)CCc1cc2ccoc2c(OC)c1O [Compound 16, Methyl 3-(6-hydroxy-7-methoxybenzofuran-5-yl)propanoate]	> 500

Tested on: not listed separately
Assay: Cytotoxicity on HeLa cell monolayers
Type: cell-based
Details: human, confluent HeLa cell monolayers

Compound	CC50 at 72 h [µg/mL]
COc1cc2c(c(O)c1OC)c(=O)c1ccccc1n2C [Compound 1, arborinine]	> 50
C=CC(C)(C)c1cc2cc3c(cc2oc1=O)OC(C(C)(C)OC(C)=O)C3 (centres unmarked) [Compound 3, rutamarin]	0.9 (≈ 2.53 µM)
COc1cc2ccc(=O)oc2c(OC)c1OC [Compound 13, 6,7,8-trimethoxycoumarin]	> 50
COC(=O)CC(O)c1cc(OC)c(O)c(OC)c1 (centres unmarked) [Compound 14, Methyl 3-hydroxy-3-(4-hydroxy-3,5-dimethoxyphenyl)propanoate]	> 50
COC(=O)C1OC1c1cc(OC)c(O)c(OC)c1 (centres unmarked) [Compound 15, Methyl 3-(4-hydroxy-3,5-dimethoxyphenyl)oxirane-2-carboxylate]	> 50
COC(=O)CCc1cc2ccoc2c(OC)c1O [Compound 16, Methyl 3-(6-hydroxy-7-methoxybenzofuran-5-yl)propanoate]	> 50
Cc1cc(CCCOc2c(C)cc(-c3noc(C(F)(F)F)n3)cc2C)on1 [Pleconaril, reference compound]	12.6 (≈ 33 µM)

Tested on: HeLa cell monolayers
Assay: Cytotoxicity on HeLa cell monolayers
Type: cell-based
Details: HeLa cells

Compound	cytotoxicity (in words)
C=CC(C)(C)c1cc2cc3c(cc2oc1=O)OC(C(C)(C)OC(C)=O)C3 (centres unmarked) [Compound 3, rutamarin]	pronounced cytotoxicity

Same assay, conditions: HeLa cells, 72 h incubation, two independent tests

Compound	CC50 [µg/mL]
COc1cc2cc(Oc3ccc4ccc(=O)oc4c3)c(=O)oc2cc1OC [Compound 2, daphnoretin methyl ether]	> 50
Cn1c2c(c(=O)c3ccccc31)CC(O)C(C)(C)O2 (centres unmarked) [Compound 8, S-ribalinine]	> 50
O=c1cc(-c2ccc3c(c2)OCO3)[nH]c2ccccc12 [Compound 11, norgraveoline]	32.2 (≈ 121 µM)

Tested on: rhinovirus 2 (HRV-2)
Assay: Cytopathic effect
Type: cell-based, human rhinovirus
Details: Enterovirus, HRV2, HeLa, read-out: HRV (experimental result, activity class)

Compound	IC50 [µM]
COc1cc2c(c(O)c1OC)c(=O)c1ccccc1n2C [Compound 1, arborinine]	< 10
COc1cc2ccc(=O)oc2c(OC)c1OC [Compound 13, 6,7,8-trimethoxycoumarin]	10 to 20
COC(=O)CC(O)c1cc(OC)c(O)c(OC)c1 (centres unmarked) [Compound 14, Methyl 3-hydroxy-3-(4-hydroxy-3,5-dimethoxyphenyl)propanoate]	> 100
COC(=O)CCc1cc2ccoc2c(OC)c1O [Compound 16, Methyl 3-(6-hydroxy-7-methoxybenzofuran-5-yl)propanoate]	20 to 100

Same assay, conditions: HeLa cells, non-cytotoxic concentrations

Compound	antiviral activity against HRV-2 (in words)
COc1cc2c(c(O)c1OC)c(=O)c1ccccc1n2C [Compound 1, arborinine]	most active antiviral constituents
COc1cc2cc(Oc3ccc4ccc(=O)oc4c3)c(=O)oc2cc1OC [Compound 2, daphnoretin methyl ether]	Weak, but significant and dose-dependent antiviral activities
Cn1c2c(c(=O)c3ccccc31)CC(O)C(C)(C)O2 (centres unmarked) [Compound 8, S-ribalinine]	Weak, but significant and dose-dependent antiviral activities
COc1cc2ccc(=O)oc2c(OC)c1OC [Compound 13, 6,7,8-trimethoxycoumarin]	most active antiviral constituents
COC(=O)CCc1cc2ccoc2c(OC)c1O [Compound 16, Methyl 3-(6-hydroxy-7-methoxybenzofuran-5-yl)propanoate]	Weak, but significant and dose-dependent antiviral activities

Same assay, conditions: Table 5 overview

Compound	HRV (experimental result, activity class)
C=CC(C)(C)c1cc2cc3c(cc2oc1=O)OC(C(C)(C)OC(C)=O)C3 (centres unmarked) [Compound 3, rutamarin]	cytotoxic

Same assay, conditions: read-out: HRV (experimental result, activity class); Table 5 overview

Compound	IC50 [µM]
COc1cc2cc(Oc3ccc4ccc(=O)oc4c3)c(=O)oc2cc1OC [Compound 2, daphnoretin methyl ether]	20 to 100
Cn1c2c(c(=O)c3ccccc31)CC(O)C(C)(C)O2 (centres unmarked) [Compound 8, S-ribalinine]	20 to 100
O=c1cc(-c2ccc3c(c2)OCO3)[nH]c2ccccc12 [Compound 11, norgraveoline]	> 100

Molecular target: CB2 receptor (Homo sapiens, UniProt P34972)
Sequence (P34972 whole entry): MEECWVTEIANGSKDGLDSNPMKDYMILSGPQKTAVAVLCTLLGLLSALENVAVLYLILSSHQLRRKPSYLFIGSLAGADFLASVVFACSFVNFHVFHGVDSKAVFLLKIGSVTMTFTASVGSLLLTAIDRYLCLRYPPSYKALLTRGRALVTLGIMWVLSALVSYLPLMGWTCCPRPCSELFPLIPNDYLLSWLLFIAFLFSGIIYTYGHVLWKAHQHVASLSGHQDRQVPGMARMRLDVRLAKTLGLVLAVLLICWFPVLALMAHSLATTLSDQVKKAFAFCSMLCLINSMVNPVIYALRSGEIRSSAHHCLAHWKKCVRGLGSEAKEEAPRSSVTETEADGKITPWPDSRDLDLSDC
Assay: Radioligand
Details: CB2 (experimental result, activity class), Table 5 overview

Compound	Ki [µM]
COc1cc2c(c(O)c1OC)c(=O)c1ccccc1n2C [Compound 1, arborinine]	> 100
C=CC(C)(C)c1cc2cc3c(cc2oc1=O)OC(C(C)(C)OC(C)=O)C3 (centres unmarked) [Compound 3, rutamarin]	< 10

Same assay, conditions: CB2 Ki, displacement of [3H]CP-55,940

Compound	Ki [µM]
C=CC(C)(C)c1cc2cc3c(cc2oc1=O)OC(C(C)(C)OC(C)=O)C3 (centres unmarked) [Compound 3, rutamarin]	7.41

Same assay, conditions: hCB2 Ki ± SD, displacement of [3H]CP-55,940, Cheng-Prusoff

Compound	Ki [µM]
CCCCCc1cc(O)c2c(c1)OC(C)(C)c1ccc(C)cc1-2 [Cannabinol, reference compound]	0.12 ± 0.01
COc1cc2c(c(O)c1OC)c(=O)c1ccccc1n2C [Compound 1, arborinine]	> 100
C=CC(C)(C)c1cc2cc3c(cc2oc1=O)OC(C(C)(C)OC(C)=O)C3 (centres unmarked) [Compound 3, rutamarin]	7.4 ± 0.6

Same assay, conditions: radioligand displacement assay

Compound	binding affinity to the CB receptors (in words)
C=CC(C)(C)c1cc2cc3c(cc2oc1=O)OC(C(C)(C)OC(C)=O)C3 (centres unmarked) [Compound 3, rutamarin]	selective affinity to the CB2 receptor

Same assay, conditions: read-out: CB2 (experimental result, activity class); Table 5 overview

Compound	Ki [µM]
Cn1c2c(c(=O)c3ccccc31)CC(O)C(C)(C)O2 (centres unmarked) [Compound 8, S-ribalinine]	> 100
COc1c(C[C@@H](O)C(C)(C)O)c(=O)n(C)c2ccccc12 [Compound 10, (−)-edulinine]	> 100

Same assay, conditions: read-out: hCB2 Ki ± SD; displacement of [3H]CP-55,940, Cheng-Prusoff

Compound	Ki [µM]
Cn1c2c(c(=O)c3ccccc31)CC(O)C(C)(C)O2 (centres unmarked) [Compound 8, S-ribalinine]	> 100
COc1c(C[C@@H](O)C(C)(C)O)c(=O)n(C)c2ccccc12 [Compound 10, (−)-edulinine]	> 100
isoplatydesmin [Compound 9]	> 100

Molecular target: CB1 receptor (Homo sapiens, UniProt P21554)
Sequence (P21554 whole entry): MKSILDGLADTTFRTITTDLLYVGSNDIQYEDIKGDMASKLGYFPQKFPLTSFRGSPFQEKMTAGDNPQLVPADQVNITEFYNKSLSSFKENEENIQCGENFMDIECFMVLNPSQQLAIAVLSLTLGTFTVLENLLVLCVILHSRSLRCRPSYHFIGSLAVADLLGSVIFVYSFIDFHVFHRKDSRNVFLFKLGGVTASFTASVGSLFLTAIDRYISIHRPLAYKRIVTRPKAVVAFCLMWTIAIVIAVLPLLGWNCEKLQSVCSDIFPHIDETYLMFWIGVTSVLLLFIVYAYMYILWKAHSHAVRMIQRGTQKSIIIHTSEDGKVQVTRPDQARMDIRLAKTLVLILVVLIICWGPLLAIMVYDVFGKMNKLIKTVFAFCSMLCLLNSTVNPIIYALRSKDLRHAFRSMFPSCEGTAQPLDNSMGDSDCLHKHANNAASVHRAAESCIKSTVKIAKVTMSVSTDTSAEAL
Assay: Radioligand
Details: not given

Compound	Ki [µM]
CCCCCc1cc(O)c2c(c1)OC(C)(C)c1ccc(C)cc1-2 [Cannabinol, reference compound]	0.42 ± 0.13
COc1cc2c(c(O)c1OC)c(=O)c1ccccc1n2C [Compound 1, arborinine]	> 100
C=CC(C)(C)c1cc2cc3c(cc2oc1=O)OC(C(C)(C)OC(C)=O)C3 (centres unmarked) [Compound 3, rutamarin]	> 100
